Assays:
CDK6/cyclin D1 = CDK6/cyclin D1 (Homo sapiens (Human), UniProt Q00534); experiment: Biochemical kinase inhibition test, CDK6/cyclin D1 (similar method); settings: for IC50: CDK6/cyclin D1, 10 μM ATP, read-out: CDK6/Cyelin D1 IC50; for selectivity for CDK6/cyclin D1 relative to CDK4/cyclin D1: enzyme inhibitory activity, CDK6/cyclin D1 vs CDK4/cyclin D1
Method: (§1) Potency determination of biochemical kinase inhibition test. Kinase activity test and IC50 determination. […] The kinase reaction was initiated by adding 1 μg (1.5 μM) of recombinant retinoblastoma protein, […] and 10μ Ci γ-32P-ATP. The reaction was incubated at 30° C. for 20 minutes, and was terminated by adding 2×Laemmli sample buffer, heated at 95° C. for three minutes, and the resulting solution was dissolved with 12% acrylamide SDS-PAGE and autoradiographed. A densitometer (Bio-Rad) was used to quantify the corresponding phosphorylated substrate protein bands. […] These reactions took place in the presence of 10 μM ATP.

PIM1 = PIM1 (Homo sapiens (Human), UniProt P11309); experiment: Enzyme inhibition PIM1; type: biochemical; settings: read-out: IC50 value of inhibition against PIM1
Chain of PIM1 (P11309 whole entry, species assumed): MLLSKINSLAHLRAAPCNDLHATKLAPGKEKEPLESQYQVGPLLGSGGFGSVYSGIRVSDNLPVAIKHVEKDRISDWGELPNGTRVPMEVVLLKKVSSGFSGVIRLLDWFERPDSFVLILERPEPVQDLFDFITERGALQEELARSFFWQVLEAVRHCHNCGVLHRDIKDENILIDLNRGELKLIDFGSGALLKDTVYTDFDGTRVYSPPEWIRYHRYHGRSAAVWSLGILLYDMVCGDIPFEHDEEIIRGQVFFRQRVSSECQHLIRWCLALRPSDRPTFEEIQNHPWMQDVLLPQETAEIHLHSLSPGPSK
Method: (§2) In addition, the inhibitory activities of the compounds of the present disclosure against enzyme ABL1, FLT3 and PIM1 were also tested.

CDK4/Cyclin D1 = CDK4/Cyclin D1 (Homo sapiens (Human), UniProt P11802); experiment: Biochemical kinase inhibition test, CDK4/Cyclin D1 (32P-ATP, Rb substrate); settings: recombinant CDK4/Cyclin D1; 10 μM ATP; read-out: CDK4/Cydin D1 IC50
Chain of CDK4/Cyclin D1 (P11802 whole entry): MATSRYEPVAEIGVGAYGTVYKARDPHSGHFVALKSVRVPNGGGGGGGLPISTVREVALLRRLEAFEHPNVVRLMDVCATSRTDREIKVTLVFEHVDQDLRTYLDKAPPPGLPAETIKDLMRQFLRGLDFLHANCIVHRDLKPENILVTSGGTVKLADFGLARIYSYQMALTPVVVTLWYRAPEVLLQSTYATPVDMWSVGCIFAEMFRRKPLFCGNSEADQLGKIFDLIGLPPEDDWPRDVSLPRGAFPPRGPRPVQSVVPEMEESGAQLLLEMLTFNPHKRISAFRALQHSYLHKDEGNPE
Chain of CDK4/Cyclin D1 (P24385 whole entry partner): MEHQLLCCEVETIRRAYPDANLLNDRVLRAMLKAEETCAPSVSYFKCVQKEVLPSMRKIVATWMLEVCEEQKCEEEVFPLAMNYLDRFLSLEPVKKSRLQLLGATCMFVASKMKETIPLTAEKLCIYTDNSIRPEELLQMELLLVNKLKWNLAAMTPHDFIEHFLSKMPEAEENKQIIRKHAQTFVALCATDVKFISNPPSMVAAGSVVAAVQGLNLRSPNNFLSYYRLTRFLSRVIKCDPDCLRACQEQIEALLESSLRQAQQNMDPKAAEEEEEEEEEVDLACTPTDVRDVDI
Method: as §1

FLT3 = FLT3 (Homo sapiens (Human), UniProt P36888); experiment: Enzyme inhibition FLT3; type: biochemical; settings: read-out: IC50 value of inhibition against FLT3
Chain of FLT3 (P36888 27-993, species assumed): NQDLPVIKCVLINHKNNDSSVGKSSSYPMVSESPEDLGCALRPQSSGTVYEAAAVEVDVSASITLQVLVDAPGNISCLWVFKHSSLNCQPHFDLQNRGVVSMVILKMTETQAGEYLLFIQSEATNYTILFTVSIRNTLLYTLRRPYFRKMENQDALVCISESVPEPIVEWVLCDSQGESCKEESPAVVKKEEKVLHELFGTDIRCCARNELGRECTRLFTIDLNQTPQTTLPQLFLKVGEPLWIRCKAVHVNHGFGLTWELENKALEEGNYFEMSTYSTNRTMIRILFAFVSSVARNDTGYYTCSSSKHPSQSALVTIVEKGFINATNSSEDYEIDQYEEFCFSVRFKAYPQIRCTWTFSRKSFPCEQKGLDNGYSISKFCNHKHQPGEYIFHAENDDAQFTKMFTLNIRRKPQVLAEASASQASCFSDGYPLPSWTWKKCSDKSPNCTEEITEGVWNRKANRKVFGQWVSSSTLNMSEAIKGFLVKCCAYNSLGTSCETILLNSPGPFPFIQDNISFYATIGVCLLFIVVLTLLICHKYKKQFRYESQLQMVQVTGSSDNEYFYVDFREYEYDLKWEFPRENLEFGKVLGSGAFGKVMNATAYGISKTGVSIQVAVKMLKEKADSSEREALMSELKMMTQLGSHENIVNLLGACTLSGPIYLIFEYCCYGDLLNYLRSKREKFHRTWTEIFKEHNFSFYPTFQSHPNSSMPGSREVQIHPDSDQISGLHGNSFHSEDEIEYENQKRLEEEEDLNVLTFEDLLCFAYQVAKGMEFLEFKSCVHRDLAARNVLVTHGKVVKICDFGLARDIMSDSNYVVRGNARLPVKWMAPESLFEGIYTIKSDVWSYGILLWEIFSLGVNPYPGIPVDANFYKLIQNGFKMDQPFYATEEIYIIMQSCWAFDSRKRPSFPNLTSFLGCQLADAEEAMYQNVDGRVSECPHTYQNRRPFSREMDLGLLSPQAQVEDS
Method: as §2

Chain of CDK6/cyclin D1 (Q00534 whole entry, species assumed): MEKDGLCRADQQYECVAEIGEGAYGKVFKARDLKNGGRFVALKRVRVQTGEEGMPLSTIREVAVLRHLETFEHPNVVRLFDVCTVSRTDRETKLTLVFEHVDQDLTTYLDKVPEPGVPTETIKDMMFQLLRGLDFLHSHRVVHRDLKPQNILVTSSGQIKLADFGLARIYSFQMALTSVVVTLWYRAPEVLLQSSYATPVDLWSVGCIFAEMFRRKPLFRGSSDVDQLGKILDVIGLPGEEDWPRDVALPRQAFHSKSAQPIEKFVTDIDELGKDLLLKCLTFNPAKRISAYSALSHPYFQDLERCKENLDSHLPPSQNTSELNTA
Chain of CDK6/cyclin D1 (P24385 whole entry partner, species assumed): as the sequence (P24385 whole entry partner) above

IC50 (CDK6/cyclin D1) [nM] | selectivity for CDK6/cyclin D1 relative to CDK4/cyclin D1 (CDK6/cyclin D1) | IC50 (PIM1) [nM] | IC50 (CDK4/Cyclin D1) [nM] | IC50 (FLT3) [nM] | Compound
< 1 | more than 5 times | < 50 | 1 to 5 | < 5 | CC(C)c1cnc2ccc3cnc(Nc4ccc(N5CCNCC5)cn4)nc3n12.Cl [Compound I-1, 9-Isopropyl-N-(5-(piperazin-1-yl)pyridin-2-yl)imidazo[1′,2′:1,6]pyrido[2,3-d]pyrimidin-2-amine hydrochloride]
< 1 | – | – | < 1 | – | CC(C)c1cnc2ccc3cnc(Nc4ccc(N5CCN(C)CC5)cn4)nc3n12 [Compound I-2, 9-Isopropyl-N-(5-(4-methylpiperazin-1-yl)pyridin-2-yl)imidazo[1′,2′:1,6]pyrido[2,3-d]pyrimidin-2-amine]
5 to 10 | – | – | 5 to 10 | – | Cc1cc(Nc2ncc3ccc4ncc(C(C)C)n4c3n2)ncc1N1CCN(C)CC1 [Compound I-3]
5 to 10 | – | – | 5 to 10 | – | Cc1nc(Nc2ncc3ccc4ncc(C(C)C)n4c3n2)ccc1N1CCN(C)CC1 [Compound I-4]
< 1 | – | – | < 1 | – | CCN1CCN(c2ccc(Nc3ncc4ccc5ncc(C(C)C)n5c4n3)nc2)CC1 [Compound I-5]
5 to 10 | 2-3 times | – | 10 to 20 | – | CCN1CCN(c2cnc(Nc3ncc4ccc5ncc(C(C)C)n5c4n3)cc2C)CC1 [Compound I-6]
5 to 10 | 2-3 times | – | 5 to 10 | – | CCN1CCN(c2ccc(Nc3ncc4ccc5ncc(C(C)C)n5c4n3)nc2C)CC1 [Compound I-7]
< 1 | more than 5 times | < 50 | 1 to 5 | < 5 | Cc1cc(Nc2ncc3ccc4ncc(C(C)C)n4c3n2)ncc1N1CCNCC1.Cl [Compound I-8]
< 1 | more than 10 times | < 50 | 5 to 10 | < 5 | Cc1nc(Nc2ncc3ccc4ncc(C(C)C)n4c3n2)ccc1N1CCNCC1.Cl [Compound I-9]
5 to 10 | – | – | 5 to 10 | – | CC(C)c1cnc2ccc3cnc(Nc4ccc(N5CCN[C@@H](C)C5)cn4)nc3n12 [Compound I-10]
5 to 10 | – | – | 5 to 10 | – | CC(C)c1cnc2ccc3cnc(Nc4ccc(N5CCNC(C)(C)C5)cn4)nc3n12 [Compound I-11]
5 to 10 | – | – | 5 to 10 | – | CC(C)c1cnc2ccc3cnc(Nc4ccc(N5C[C@@H](C)N[C@@H](C)C5)cn4)nc3n12 [Compound I-12]
5 to 10 | 2-3 times | – | 10 to 20 | – | CC(C)c1cnc2ccc3cnc(Nc4cc(F)c(N5CCNCC5)cn4)nc3n12.Cl [Compound I-13]
10 to 20 | 2-3 times | – | 20 to 50 | – | CC(C)c1cnc2ccc3cnc(Nc4ccc(N5CCNCC5)c(F)n4)nc3n12.Cl [Compound I-14]
20 to 50 | – | – | 20 to 50 | – | CC(C)c1cnc2ccc3cnc(Nc4ccc(N5CCCNCC5)cn4)nc3n12 [Compound I-15]
20 to 50 | – | – | 20 to 50 | – | CC(C)c1cnc2ccc3cnc(Nc4ccc(N5CCCCC5)cn4)nc3n12 [Compound I-16]
< 1 | more than 10 times | < 50 | 5 to 10 | < 5 | CC(C)c1cnc2ccc3cnc(Nc4ccc(N5CCOCC5)cn4)nc3n12 [Compound I-17]
1 to 5 | about 4 times | < 50 | 10 to 20 | < 5 | Cc1cc(Nc2ncc3ccc4ncc(C(C)C)n4c3n2)ncc1N1CCOCC1 [Compound I-18]
5 to 10 | – | – | 5 to 10 | – | Cc1nc(Nc2ncc3ccc4ncc(C(C)C)n4c3n2)ccc1N1CCOCC1 [Compound I-19]
5 to 10 | – | – | 5 to 10 | – | CC1CN(c2ccc(Nc3ncc4ccc5ncc(C(C)C)n5c4n3)nc2)CCO1 (stereo not drawn) [Compound I-20]

IC50 (CDK6/cyclin D1) [nM] | selectivity for CDK6/cyclin D1 relative to CDK4/cyclin D1 (CDK6/cyclin D1) | IC50 (PIM1) [nM] | IC50 (CDK4/Cyclin D1) [nM] | IC50 (FLT3) [nM] | Compound
10 to 20 | 2-3 times | – | 20 to 50 | – | CC(C)c1cnc2ccc3cnc(Nc4ccc(N5C[C@@H](C)O[C@@H](C)C5)cn4)nc3n12 [Compound I-21]
20 to 50 | – | – | 20 to 50 | – | CC(C)c1cnc2ccc3cnc(Nc4ccc(N5CCC6(CCNCC6)C5)cn4)nc3n12 [Compound I-22]
20 to 50 | – | – | 20 to 50 | – | CC(C)c1cnc2ccc3cnc(Nc4ccc(N5CCC6(CNC6)C5)cn4)nc3n12 [Compound I-23]
20 to 50 | – | – | 20 to 50 | – | CC(C)c1cnc2ccc3cnc(Nc4ccc(N5CC6(CNC6)C5)cn4)nc3n12 [Compound I-24]
20 to 50 | – | – | 20 to 50 | – | CC(C)c1cnc2ccc3cnc(Nc4ccc(N5CCC6(CC5)CNC6)cn4)nc3n12 [Compound I-25]
20 to 50 | – | – | 20 to 50 | – | CC(C)c1cnc2ccc3cnc(Nc4ccc(N5CC6(CCNCC6)C5)cn4)nc3n12 [Compound I-26]
50 to 100 | – | – | 50 to 100 | – | CC(C)c1cnc2ccc3cnc(Nc4ccc(N5CCNCC5)cc4F)nc3n12 [Compound I-27]
50 to 100 | – | – | 50 to 100 | – | COc1cc(OCCN(C)C)ccc1Nc1ncc2ccc3ncc(C(C)C)n3c2n1 [Compound I-28]
50 to 100 | – | – | 50 to 100 | – | COc1cc(OC2CCN(C)CC2)ccc1Nc1ncc2ccc3ncc(C(C)C)n3c2n1 [Compound I-29]
50 to 100 | – | – | 50 to 100 | – | COc1ccc2cc(Nc3ncc4ccc5ncc(C(C)C)n5c4n3)ccc2n1 [Compound I-30]
< 1 | more than 5 times | < 50 | 1 to 5 | < 5 | Cl.c1cc(Nc2ncc3ccc4ncc(C5CCCC5)n4c3n2)ncc1N1CCNCC1 [Compound I-31]
5 to 10 | – | – | 5 to 10 | – | CCN1CCN(c2cnc(Nc3ncc4ccc5ncc(C6CCCC6)n5c4n3)cc2C)CC1 [Compound I-32]
< 1 | more than 10 times | < 50 | 5 to 10 | < 5 | Cc1cc(Nc2ncc3ccc4ncc(C5CCCC5)n4c3n2)ncc1N1CCNCC1.Cl [Compound I-33]
< 1 | more than 10 times | < 50 | 5 to 10 | < 5 | Cc1nc(Nc2ncc3ccc4ncc(C5CCCC5)n4c3n2)ccc1N1CCNCC1.Cl [Compound I-34]
5 to 10 | – | – | 5 to 10 | – | C[C@@H]1CN(c2ccc(Nc3ncc4ccc5ncc(C6CCCC6)n5c4n3)nc2)C[C@H](C)N1 [Compound I-35]
10 to 20 | – | – | 10 to 20 | – | Fc1cc(Nc2ncc3ccc4ncc(C5CCCC5)n4c3n2)ncc1N1CCNCC1 [Compound I-36]
5 to 10 | – | – | 5 to 10 | – | Fc1nc(Nc2ncc3ccc4ncc(C5CCCC5)n4c3n2)ccc1N1CCNCC1 [Compound I-37]
1 to 5 | about 4 times | < 50 | 10 to 20 | < 5 | Cc1cc(Nc2ncc3ccc4ncc(C5CCCC5)n4c3n2)ncc1N1CCOCC1 [Compound I-38]
10 to 20 | 2-3 times | – | 20 to 50 | – | C[C@@H]1CN(c2ccc(Nc3ncc4ccc5ncc(C6CCCC6)n5c4n3)nc2)C[C@H](C)O1 [Compound I-39]

— US11091485B2, “Imidazo[1′,2′:1,6]pyrido[2,3-d]pyrimidine compound as protein kinase inhibitor” (SHENGKE PHARMACEUTICALS (JIANGSU) LTD., priority 2017, dated 2021)
